# From patent US20150173364A1, “HERBICIDAL COMPOSITIONS CONTAINING FLUMIOXAZIN, AMINOPYRALID AND FLUROXYPYR OR 2,4-D” (Dow AgroSciences LLC, priority 2013, published 2015)
# Test system: BOIVE: whitehead broom (Borerria verticillata)
# Experiment: Postemergence herbicidal activity of mixtures in the field, visual weed control
# Assay type: in vivo
# Conditions: postemergence field trial
# Description: Field trials were conducted in Brazil in pasture area cultivated with Brachiaria brizantha using standard herbicide small-plot research methodology. The plot size used was 3 meters (m)×8 m (width×length) with 4 replicates per treatment. The pasture was grown using normal cultural practices for fertilization, management, and maintenance to ensure good growth of the crop and the weeds. […] All treatment results, both for the single product and mixtures, are an average of 3 to 4 replicates and the tank-mix interactions are significant at the […] level. Colby's equation was used to determine the herbicidal effects expected from the mixtures (Colby, S. R. Calculation of the synergistic and antagonistic response of herbicide combinations. […] However, the experiments described herein were performed such that active ingredients B and C were combined and only the efficacy of the combination was determined. As such, Colby's equation simplifies to Expected=A+Z−(AZ/100) A=observed efficacy of active ingredient A (flumioxazin) at the same concentration as used in the mixture; […] All comparisons are an average of 3 to 4 replicates and are significant at the […] level.
structure (smiles),measurement,setting,value
"C#CCN1C(=O)COc2cc(F)c(N3C(=O)C4=C(CCCC4)C3=O)cc21 [Flumioxazin, 2-[7-fluoro-3,4-dihydro-3-oxo-4-(2-propyn-1-yl)-2H-1,4-benzoxazin-6-yl]-4,5,6,7-tetrahydro-1H-isoindole-1,3(2H)-dione]",% Visual Control BOIVE (281 DAA) Obs,Flumioxazin 25 g ai/ha alone,0%
same,% Visual Control BOIVE (281 DAA) Obs,Flumioxazin 50 g ai/ha alone,0%
same,% Visual Control BOIVE (281 DAA) Obs,Flumioxazin 75 g ai/ha alone,4%
same,% Visual Control BOIVE (281 DAA) Obs,Flumioxazin 100 g ai/ha alone,13%
same,% Visual Control BOIVE (281 DAA) Obs,Flumioxazin 125 g ai/ha alone,14%
